≈ marks a conversion by molar mass, not a printed value. Residues, ends and D or L forms follow the SMILES beside them.
Legend:
[1] = test system: P. aeruginosa (CCUG 56489); assay type: cell-based, Pseudomonas aeruginosa
Procedure: (§1) The minimum inhibitory concentration protocol was adapted from [42], with the main change in volume for easier observation. In short, the protocol was as follows: a single colony of Staphylococcus aureus (CCUG 10778) or Pseudomonas aeruginosa (CCUG 56489) was inoculated in 4 mL of TSB and cultivated at 37 °C until OD ~ 0.7 which corresponds to a concentration of roughly 10^9 CFU mL^−1. This was then diluted 1000 times to a concentration of roughly 10^6 CFU mL^−1 using Mueller Hinton broth (MH broth). In the meantime, the different peptides were weighed in separate 15 mL falcon tubes and dissolved in MH broth for a concentration of 512 µM. Serial dilution by a factor of 2 was then performed, with MH broth, in a 24-well plate, leaving 500 µL of solution in each well. Then, 500 µL of the bacterial solution was added to each well resulting in a starting concentration of 5 × 10^5 CFU mL^−1. […] The plates were cultivated overnight (16–18 h) and the minimum inhibitory concentration was determined for the lowest concentration where no visible growth was observed. Three separate experiments were performed for all peptides and bacteria.

[2] = test system: S. aureus (CCUG 10778); assay type: cell-based, Staphylococcus aureus
Procedure: as §1

[3] = test system: defibrinated horse blood; assay type: cell-based; details: red cells of horse, 1 h
Procedure: The use of hemolysis assays to study AMPs is a common implementation and quite standardized with small variations. Serial dilutions of the free AMPs were prepared in PBS to obtain 100 µL in Eppendorf tubes of the concentrations: 2, 4, 8, 16, 32, 64, 128, and 256 µM. A total of 100 µL of just PBS was added to an Eppendorf tube to serve as a negative control, and 100 µL of 0.2% Triton X-100 was added to an Eppendorf tube to serve as a positive control. The functionalized 8 mm Ø hydrogels as well as non-functionalized control hydrogels were placed in Eppendorf tubes together with 0.1, 0.2, 0.3 mL, or 0.4 mL PBS, two samples per type. For each volume, a set of negative control (PBS) and positive control (0.2% Triton X-100) was included using a matching volume. The blood used for the study was defibrinated horse blood from Thermo Fisher Scientific. The blood was placed in a 15 mL falcon tube and centrifuged at 4 °C for 10 min at 1000× g. The supernatant was discarded, and the erythrocytes were resuspended in 4 °C PBS and again centrifuged and the supernatant was removed. […]
The Eppendorf tubes were placed in an incubator at 37 °C for 1 h and the tubes were rotated 3 times every 15 min to limit sedimentation of the red blood cells. […] The absorbance was read at 540 nm using a Multiskan GO from Thermo Fisher Scientific. The rate of hemolysis was determined by Equation (2). […]

SMILES | MIC, P. aeruginosa [1] [µM] | MIC, S. aureus [2] [µM] | Hemolysis at 8–16 µM (observed MIC values against P. aeruginosa) [3]; 16 | Hemolysis at corresponding MIC values [3]
NCCCC[C@H](NC(=O)[C@@H](N)CCCCN)C(=O)N1CCC[C@H]1C(=O)N[C@@H](CCCCN)C(=O)N1CCC[C@H]1C(=O)N[C@@H](CCCCN)C(=O)N1CCC[C@H]1C(=O)N[C@@H](CCCCN)C(=O)N1CCC[C@H]1C(=O)N[C@@H](Cc1c[nH]c2ccccc12)C(=O)N[C@@H](Cc1c[nH]c2ccccc12)C(=O)N[C@@H](Cc1c[nH]c2ccccc12)C(=O)N[C@@H](Cc1c[nH]c2ccccc12)C(N)=O [K9W4] (H-KKPKPKPKPWWWW-NH2) | 64 to 128 |  |  | 
N=C(N)NCCC[C@H](NC(=O)[C@@H]1CCCN1C(=O)[C@H](CCCNC(=N)N)NC(=O)[C@@H]1CCCN1C(=O)[C@H](CCCNC(=N)N)NC(=O)[C@@H]1CCCN1C(=O)[C@H](CCCCN)NC(=O)[C@@H](N)CCCCN)C(=O)N1CCC[C@H]1C(=O)N[C@@H](Cc1c[nH]c2ccccc12)C(=O)N[C@@H](Cc1c[nH]c2ccccc12)C(=O)N[C@@H](Cc1c[nH]c2ccccc12)C(=O)N[C@@H](Cc1c[nH]c2ccccc12)C(N)=O [KR9W4] (H-KKPRPRPRPWWWW-NH2) | 16 to 64 | 8 to 16 |  | 
CC[C@H](C)[C@H](N)C(=O)N[C@@H](CC(C)C)C(=O)N[C@@H](CCCNC(=N)N)C(=O)N[C@@H](Cc1c[nH]c2ccccc12)C(=O)N1CCC[C@H]1C(=O)N[C@@H](Cc1c[nH]c2ccccc12)C(=O)N[C@@H](Cc1c[nH]c2ccccc12)C(=O)N1CCC[C@H]1C(=O)N[C@@H](Cc1c[nH]c2ccccc12)C(=O)N[C@@H](CCCNC(=N)N)C(=O)N[C@@H](CCCNC(=N)N)C(=O)N[C@@H](CCCCN)C(N)=O [Omiganan, reference compound] (H-ILRWPWWPWRRK-NH2) | 32 (≈ 56.9 µg/mL) | 4 to 8 |  | 
CC[C@H](C)[C@H](NC(=O)CNC(=O)[C@H](CCCNC(=N)N)NC(=O)[C@H](Cc1ccccc1)NC(=O)[C@@H](NC(=O)[C@H](Cc1c[nH]cn1)NC(=O)[C@H](Cc1c[nH]cn1)NC(=O)[C@H](Cc1ccccc1)NC(=O)[C@@H](N)Cc1ccccc1)[C@@H](C)CC)C(=O)N[C@H](C(=O)N[C@@H](Cc1c[nH]cn1)C(=O)N[C@H](C(=O)NCC(=O)N[C@@H](CCCCN)C(=O)N[C@H](C(=O)N[C@H](C(=O)N[C@@H](Cc1c[nH]cn1)C(=O)N[C@@H](CCCNC(=N)N)C(=O)N[C@@H](CC(C)C)C(=O)N[C@H](C(=O)N[C@H](C(=O)NCC(N)=O)[C@@H](C)O)C(C)C)[C@@H](C)CC)[C@@H](C)O)C(C)C)C(C)C [Piscidin 1, reference compound] (H-FFHHIFRGIVHVGKTIHRLVTG-NH2) | 8 to 16 | 1 to 2 | 60–100% | 
N=C(N)NCCC[C@H](NC(=O)[C@@H](N)CCCNC(=N)N)C(=O)N1CCC[C@H]1C(=O)N[C@@H](CCCNC(=N)N)C(=O)N1CCC[C@H]1C(=O)N[C@@H](CCCNC(=N)N)C(=O)N1CCC[C@H]1C(=O)N[C@@H](CCCNC(=N)N)C(=O)N1CCC[C@H]1C(=O)N[C@@H](Cc1c[nH]c2ccccc12)C(=O)N[C@@H](Cc1c[nH]c2ccccc12)C(=O)N[C@@H](Cc1c[nH]c2ccccc12)C(=O)N[C@@H](Cc1c[nH]c2ccccc12)C(N)=O [R9W4] (H-RRPRPRPRPWWWW-NH2) | 16 (≈ 30.9 µg/mL) | 8 (≈ 15.5 µg/mL) |  | below 20%
N=C(N)NCCC[C@H](NC(=O)[C@@H](N)CCCNC(=N)N)C(=O)N1CCC[C@H]1C(=O)N[C@@H](CCCNC(=N)N)C(=O)N1CCC[C@H]1C(=O)N[C@@H](CCCNC(=N)N)C(=O)N1CCC[C@H]1C(=O)N[C@@H](CCCNC(=N)N)C(=O)N1CCC[C@H]1C(=O)N[C@@H](Cc1c[nH]c2ccccc12)C(=O)N[C@@H](Cc1c[nH]c2ccccc12)C(=O)N[C@@H](Cc1c[nH]c2ccccc12)C(=O)N[C@@H](Cc1c[nH]c2ccccc12)C(=O)N[C@@H](Cc1c[nH]c2ccccc12)C(N)=O [R9W5] (H-RRPRPRPRPWWWWW-NH2) | 32 to 64 | 16 (≈ 33.9 µg/mL) |  | 

Reference: publication PMC11050424, “Antibacterial and Hemolytic Activity of Antimicrobial Hydrogels Utilizing Immobilized Antimicrobial Peptides” (International Journal of Molecular Sciences, 2024)
